Results from US12606528B2, “Methods and materials for inhibiting NF-kB activity” (University of Pittsburgh - Of the Commonwealth System of …, priority 2019, dated 2026).
Like-named read-outs stand apart in the source and are kept apart here.

Experiments:
NF-κB = NF-κB assay: THP1-NF-κB-LUC cells, LPS-stimulated secreted luciferase; assay type: cell-based; conditions: THP1-NF-κB-LUC cells, read-out: IC50 (NF-κB assay)
Outline: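 THP1-NF-κB-LUC cells (25k/well) were pretreated with compounds for 2 h, then stimulated with LPS (10 ng/mL) for 18 h. Secreted luciferase was measured and normalized to vehicle, and IC50 was fitted from the concentration series.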

TNF release = experiment: TNF assay: TNF release from LPS-stimulated human PBMCs (TNF ELISA); assay type: cell-based; conditions: PBMC, read-out: IC50 (TNF assay)
Outline: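 Human PBMCs at 10k/well pretreated with compound dilutions 2 h, then stimulated with LPS (10 ng/mL) for 18 h. TNF in supernatants quantified by ELISA; IC50 for inhibition of TNF release fitted from concentration–response.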

[1] = LPS-stimulated human PBMCs, TNF ELISA
[2] = compounds 2 hours before LPS (10 ng/mL) for 18 hours, secreted luciferase
[3] = human PBMCs, compounds 2 hours before LPS (10 ng/ml) for 18 hours, supernatant TNF ELISA

| SMILES | IC50 (NF-κB; LPS-stimulated) [nM] | IC50 (TNF release; [1]) [nM] | IC50 (NF-κB; [2]) [nM] | IC50 (TNF release; [3]) [nM] |
| --- | --- | --- | --- | --- |
| Cc1ccc(NS(=O)(=O)c2cc(Br)cc3c2OCCNC3=O)cc1F [BC19552] | 100 to 1000 | > 10000 |  |  |
| O=C1NCCOc2c1cc(Br)cc2S(=O)(=O)Nc1ccccc1 [BC19553] | 1000 to 10000 | > 10000 |  |  |
| CCNS(=O)(=O)c1ccc2nc(-c3ccc(F)cc3)c(-c3ccc(F)cc3)nc2c1 [BC19556] | 100 to 1000 | > 10000 |  |  |
| O=S(=O)(NCc1ccncc1)c1ccc2nc(-c3ccc(F)cc3)c(-c3ccc(F)cc3)nc2c1 [BC19558] | 100 to 1000 | > 10000 |  |  |
| Cc1ccc(-c2nc3ccc(S(=O)(=O)NCCCN4CCN(C)CC4)cc3nc2-c2ccc(C)cc2)cc1 [BC19561] | 100 to 1000 | > 10000 |  |  |
| CN(C)CCCNS(=O)(=O)c1ccc2nc(-c3ccc(F)cc3)c(-c3ccc(F)cc3)nc2c1 [BC19562] | 100 to 1000 | 1000 to 10000 |  |  |
| O=C(NCCN1CCOCC1)Nc1ccc2nc(-c3ccc(F)cc3)c(-c3ccc(F)cc3)nc2c1 [BC19567] | 100 to 1000 | 1000 to 10000 |  |  |
| O=C(Nc1ccc2nc(-c3ccc(F)cc3)c(-c3ccc(F)cc3)nc2c1)NC1CC1 [BC19568] | 100 to 1000 | > 10000 |  |  |
| O=C(NCC1CC1)Nc1ccc2nc(-c3ccc(F)cc3)c(-c3ccc(F)cc3)nc2c1 [BC19569] | 100 to 1000 | > 10000 |  |  |
| O=C(NCc1ccccn1)Nc1ccc2nc(-c3ccc(F)cc3)c(-c3ccc(F)cc3)nc2c1 [BC19570] | 100 to 1000 | > 10000 |  |  |
| O=C(NCc1cccnc1)Nc1ccc2nc(-c3ccc(F)cc3)c(-c3ccc(F)cc3)nc2c1 [BC19571] | 100 to 1000 | 1000 to 10000 |  |  |
| O=C(NCc1ccncc1)Nc1ccc2nc(-c3ccc(F)cc3)c(-c3ccc(F)cc3)nc2c1 [BC19572] | 100 to 1000 | > 10000 |  |  |
| CN(C)CCCNC(=O)Nc1ccc2nc(-c3ccc(F)cc3)c(-c3ccc(F)cc3)nc2c1 [BC19573] | 100 to 1000 | 100 to 1000 |  |  |
| COCCCNC(=O)Nc1ccc2nc(-c3ccc(F)cc3)c(-c3ccc(F)cc3)nc2c1 [BC19574] | 100 to 1000 | > 10000 |  |  |
| O=C(NCCCO)Nc1ccc2nc(-c3ccc(F)cc3)c(-c3ccc(F)cc3)nc2c1 [BC19575] | 100 to 1000 | > 10000 |  |  |
| O=C(NCCCN1CCOCC1)Nc1ccc2nc(-c3ccc(F)cc3)c(-c3ccc(F)cc3)nc2c1 [BC19576] | 100 to 1000 | > 10000 |  |  |
| CN1CCN(Cc2ccc3nc(-c4ccc(F)cc4)c(-c4ccc(F)cc4)nc3c2)CC1 [BC19577] | 100 to 1000 | > 10000 |  |  |
| CN1CCN(C(=O)c2ccc3nc(-c4ccc(F)cc4)c(Nc4ccc(F)cc4)nc3c2)CC1 [BC19578] | > 10000 | > 10000 |  |  |
| O=c1[nH]ccc2cc(S(=O)(=O)c3ccccc3)ccc12 [BC19579] |  |  | > 10000 | > 10000 |
| O=c1[nH]ccc2cc(Sc3ccc(F)cc3)ccc12 [BC19580] |  |  | > 10000 | > 10000 |
| CC(C)S(=O)(=O)c1[nH]c(-c2ccccc2)nc1S(=O)(=O)c1ccc(F)cc1 [BC19581] | > 10000 | > 10000 |  |  |
| CC(C)C[S+]([O-])c1[nH]c(-c2ccccc2)nc1S(=O)(=O)c1ccc(F)cc1 (stereo not drawn) [BC19582] | 1000 to 10000 | > 10000 |  |  |

Results, then the compound that gave them:

| IC50 (NF-κB; LPS-stimulated) [nM] | IC50 (TNF release; [1]) [nM] | IC50 (NF-κB; [2]) [nM] | IC50 (TNF release; [3]) [nM] | SMILES |
| --- | --- | --- | --- | --- |
| < 100 | > 10000 |  |  | O=C1NCCOc2c1cc(Br)cc2S(=O)(=O)Nc1ccc(OC(F)(F)F)cc1 [BC19550] |
| 100 to 1000 | > 10000 |  |  | O=C1NCCOc2c1cc(Br)cc2S(=O)(=O)Nc1ccc(F)c(F)c1 [BC19551] |
| < 100 | > 10000 |  |  | COCCCNS(=O)(=O)c1ccc2nc(-c3ccc(F)cc3)c(-c3ccc(F)cc3)nc2c1 [BC19554] |
| < 100 | 1000 to 10000 |  |  | CN(C)CCNS(=O)(=O)c1ccc2nc(-c3ccc(F)cc3)c(-c3ccc(F)cc3)nc2c1 [BC19555] |
| < 100 | > 10000 |  |  | O=S(=O)(NCc1cccnc1)c1ccc2nc(-c3ccc(F)cc3)c(-c3ccc(F)cc3)nc2c1 [BC19557] |
| < 100 | > 10000 |  |  | O=S(=O)(NCc1ccccn1)c1ccc2nc(-c3ccc(F)cc3)c(-c3ccc(F)cc3)nc2c1 [BC19559] |
| < 100 | > 10000 |  |  | O=C1CCCN1CCCNS(=O)(=O)c1ccc2nc(-c3ccc(F)cc3)c(-c3ccc(F)cc3)nc2c1 [BC19560] |
| < 100 | > 10000 |  |  | CCNC(=O)Nc1ccc2nc(-c3ccc(F)cc3)c(-c3ccc(F)cc3)nc2c1 [BC19563] |
| < 100 | 1000 to 10000 |  |  | CN(C)CCNC(=O)Nc1ccc2nc(-c3ccc(F)cc3)c(-c3ccc(F)cc3)nc2c1 [BC19564] |
| < 100 | > 10000 |  |  | COCCNC(=O)Nc1ccc2nc(-c3ccc(F)cc3)c(-c3ccc(F)cc3)nc2c1 [BC19565] |
| < 100 | > 10000 |  |  | O=C(NCCO)Nc1ccc2nc(-c3ccc(F)cc3)c(-c3ccc(F)cc3)nc2c1 [BC19566] |
